In US20240279236A1, “COMPOUNDS AND METHODS OF TREATING TUBERCULOSIS” (Fimbrion Therapeutics, Inc., priority 2021, published 2024):

These compounds were tested on WT Mtb Erdman strain (assay: Microplate Alamar Blue Assay (MABA), Mtb growth inhibition). Details: Mycobacterium tuberculosis, ERDMAN, 168 h, Middlebrook 7H9 media, 7 days at 37° C. in 5% CO2.
Assay type: cell-based, Mycobacterium tuberculosis

First: Cc1cc2c(NCCCc3ccccc3)nc(S(C)(=O)=O)nc2s1 [Example 578, 6-methyl-2-(methylsulfonyl)-N-(3-phenylpropyl)thieno[2,3-d]pyrimidin-4-amine]
Second: Cc1cc2c(NCCCc3ccccc3)nc(C(=O)O)nc2s1 [Example 579, 6-methyl-4-((3-phenylpropyl)amino)thieno[2,3-d]pyrimidine-2-carboxylic acid]
The IC50 of the first is lower: 4000 nM for the first, over 10000 nM for the second. The first is the more potent here.

Compared with `Cc1cc2c(NCCCc3ccccc3)nc(OC(F)F)nc2s1` [Example 580, 2-(difluoromethoxy)-6-methyl-N-(3-phenylpropyl)thieno[2,3-d]pyrimidin-4-amine], `Cc1cc2c(NCCCc3ccccc3)nc([S+](C)[O-])nc2s1` (stereo not drawn) [Example 581, 6-methyl-2-(methylsulfinyl)-N-(3-phenylpropyl)thieno[2,3-d]pyrimidin-4-amine] is lower in IC50: over 10000 nM for the first, 1300 nM for the second. The second is the more potent here.

`C=C(C)c1nc(NCCCc2ccccc2)c2cc(C)sc2n1` [Example 582, 6-methyl-N-(3-phenylpropyl)-2-(prop-1-en-2-yl)thieno[2,3-d]pyrimidin-4-amine] and `Cc1cc2c(NCCCc3ccccc3)nc(-n3ccnn3)nc2s1` [Example 586, 6-methyl-N-(3-phenylpropyl)-2-(1H-1,2,3-triazol-1-yl)thieno[2,3-d]pyrimidin-4-amine] are within 1.5-fold of each other in IC50: 170 nM for the first, 200 nM for the second.

Compared with `Cc1nc(NCCCc2ccccc2)c2nc(Cl)sc2n1` [Example 583, 2-chloro-5-methyl-N-(3-phenylpropyl)thiazolo[5,4-d]pyrimidin-7-amine], `Cc1nc(NCCCc2ccccc2)c2ncsc2n1` [Example 584, 5-methyl-N-(3-phenylpropyl)thiazolo[5,4-d]pyrimidin-7-amine] is higher in IC50: 5800 nM for the first, over 10000 nM for the second.

First: Cc1cc2c(NCCCc3ccc(OC(F)(F)F)cc3)nc(-n3ccnn3)nc2s1 [Example 587, 6-methyl-2-(1H-1,2,3-triazol-1-yl)-N-(3-(4-(trifluoromethoxy)phenyl)propyl)thieno[2,3-d]pyrimidin-4-amine]
Second: Cc1cc2c(NCCCc3ccc(-c4ccc(OC(F)(F)F)cc4)cc3)nc(-n3ccnn3)nc2s1 [Example 602, 6-methyl-2-(1H-1,2,3-triazol-1-yl)-N-(3-(4′-(trifluoromethoxy)-[1,1′-biphenyl]-4-yl)propyl)thieno[2,3-d]pyrimidin-4-amine]
The IC50 of the first is 5.8-fold higher: 1100 nM for the first, 190 nM for the second.

Going from `CCc1nc(NCCCc2ccccc2O)c2cc(C)sc2n1` [Example 588, 2-(3-((2-ethyl-6-methylthieno[2,3-d]pyrimidin-4-yl)amino)propyl)phenol] to `Cc1cc2c(NCCCc3ccccc3O)nc(C(F)(F)F)nc2s1` [Example 589, 2-(3-((6-methyl-2-(trifluoromethyl)thieno[2,3-d]pyrimidin-4-yl)amino)propyl)phenol], the IC50 rises from 4400 nM to over 10000 nM.

Compared with `CCc1nc(NCCCc2ccc(Nc3ccccc3)cc2)c2cc(C)sc2n1` [Example 590, 2-ethyl-6-methyl-N-(3-(4-(phenylamino)phenyl)propyl)thieno[2,3-d]pyrimidin-4-amine], `CCc1nc(NCCCc2ccc(N=[N+]=[N-])cc2)c2cc(C)sc2n1` [Example 591, N-(3-(4-azidophenyl)propyl)-2-ethyl-6-methylthieno[2,3-d]pyrimidin-4-amine] is higher in IC50: 530 nM for the first, over 10000 nM for the second.

Going from `Cc1cc2c(NCCCc3ccc(N=[N+]=[N-])cc3)nc(C(F)(F)F)nc2s1` [Example 592, N-(3-(4-azidophenyl)propyl)-6-methyl-2-(trifluoromethyl)thieno[2,3-d]pyrimidin-4-amine] to `Cc1cc2c(NCCCc3ccc(-c4ccc(OC(F)(F)F)cc4)cc3)nc(Br)nc2s1` [Example 598, 2-bromo-6-methyl-N-(3-(4′-(trifluoromethoxy)-[1,1′-biphenyl]-4-yl)propyl)thieno[2,3-d]pyrimidin-4-amine], the IC50 falls from 4400 nM to 81 nM (54-fold). The second is the more potent here.

Going from `CCc1nc(NCCCc2ccc(-n3ccnn3)cc2)c2cc(C)sc2n1` [Example 593, N-(3-(4-(1H-1,2,3-triazol-1-yl)phenyl)propyl)-2-ethyl-6-methylthieno[2,3-d]pyrimidin-4-amine] to `Cc1cc2c(NCCCc3ccc(-n4cccc4)cc3)nc(-c3ccoc3)nc2s1` [Example 604, 2-(furan-3-yl)-6-methyl-N-(3-[4-(1H-pyrrol-1-yl)phenyl]propyl)thieno[2,3-d]pyrimidin-4-amine], the IC50 falls from 530 nM to 28 nM (19-fold). The second is the more potent here.

Compared with `Cc1cc2c(NCCCc3ccc(-c4ccc[nH]4)cc3)nc(-c3ccoc3)nc2s1` [Example 594, 2-(furan-3-yl)-6-methyl-N-(3-[4-(1H-pyrrol-2-yl)phenyl]propyl)thieno[2,3-d]pyrimidin-4-amine], `Cc1cc2c(NCCCc3ccc(-c4ccc(C(=O)O)cc4)cc3)nc(-c3ccoc3)nc2s1` [Example 601, 4′-(3-((2-(furan-3-yl)-6-methylthieno[2,3-d]pyrimidin-4-yl)amino)propyl)-[1,1′-biphenyl]-4-carboxylic acid] is 2.2-fold higher in IC50: 240 nM for the first, 530 nM for the second.

Going from `Cc1cc2c(NCCCc3ccc(-c4ccc(OC(F)(F)F)cc4)cc3)nc(OCC(F)(F)F)nc2s1` [Example 596, 6-methyl-2-(2,2,2-trifluoroethoxy)-N-(3-(4′-(trifluoromethoxy)-[1,1′-biphenyl]-4-yl)propyl)thieno[2,3-d]pyrimidin-4-amine] to `Cc1cc2c(NCCCc3ccc(-c4ccc(OC(F)(F)F)cc4)cc3)nc(SC(F)(F)F)nc2s1` [Example 597, 6-methyl-N-(3-(4′-(trifluoromethoxy)-[1,1′-biphenyl]-4-yl)propyl)-2-((trifluoromethyl)thio)thieno[2,3-d]pyrimidin-4-amine], the IC50 rises from 29 nM to 6300 nM (220-fold).

`CC(=O)Nc1nc(NCCCc2ccc(-c3ccc(OC(F)(F)F)cc3)cc2)c2cc(C)sc2n1` [Example 599, N-(6-methyl-4-((3-(4′-(trifluoromethoxy)-[1,1′-biphenyl]-4-yl)propyl)amino)thieno[2,3-d]pyrimidin-2-yl)acetamide] and `Cc1cc2c(NCCCc3ccc(-c4ccc(OC(F)(F)F)cc4)cc3)nc(C#N)nc2s1` [Example 605, 6-methyl-4-((3-[4′-(trifluoromethoxy)-[1,1′-biphenyl]-4-yl]propyl)amino)thieno[2,3-d]pyrimidine-2-carbonitrile] cannot be ordered by IC50: over 370 nM for the first, over 10000 nM for the second.
